Measurements from ChEMBL document CHEMBL3244262, “A Fujita--Ban structure--activity analysis of 44 steroids” (1978).

Tested on: Rattus norvegicus
Experiment: Glucocorticoid activity in sc dosed bilaterally adrenalectomized rat assessed as glycogen deposition in liver administered for 5 days relative to cortisol
Format: functional

Compared with `C[C@]12CCC(=O)C=C1CC[C@H]1[C@@H]3C[C@@H](O)[C@](O)(C(=O)CO)[C@@]3(C)C[C@H](O)[C@@]12F`, `C[C@]12CCC(=O)C=C1CC[C@H]1[C@@H]3CC[C@](O)(C(=O)CO)[C@@]3(C)C[C@H](O)[C@@]12F` [FLUDROCORTISONE] is higher in “log(activity)” value: 0.53 for the first, 0.9 for the second.

`CC(=O)[C@@]1(O)CC[C@H]2[C@@H]3CCC4=CC(=O)[C@H](C)C[C@]4(C)[C@@]3(F)[C@@H](O)C[C@@]21C` and `CC(=O)[C@H]1CC[C@H]2[C@@H]3CCC4=CC(=O)[C@H](C)C[C@]4(C)[C@@]3(F)[C@@H](O)C[C@]12C` are within 0.2 log units of each other in “log(activity)” value: -0.11 for the first, -0.28 for the second.

First: C[C@]12CCC(=O)C=C1CC[C@@H]1[C@@H]2C(=O)C[C@@]2(C)[C@H]1CC[C@]2(O)C(=O)CO [CORTISONE]
Second: C[C@]12CCC(=O)C=C1CC[C@@H]1[C@@H]2[C@@H](O)C[C@@]2(C)[C@H]1CC[C@]2(O)C(=O)CO [HYDROCORTISONE]
The “log(activity)” value of the first is lower: -0.46 for the first, 0 for the second.

First: CC(=O)[C@H]1CC[C@H]2[C@@H]3C[C@H](C)C4=CC(=O)CC[C@]4(C)[C@H]3C(=O)C[C@]12C
Second: CC(=O)[C@H]1CC[C@H]2[C@@H]3C[C@H](F)C4=CC(=O)CC[C@]4(C)[C@H]3C(=O)C[C@]12C
The “log(activity)” value of the first is higher: 0.12 for the first, -1.15 for the second.

`C[C@]12C=CC(=O)C=C1CC[C@@H]1[C@@H]2C(=O)C[C@@]2(C)[C@H]1CC[C@]2(O)C(=O)CO` [PREDNISONE] and `C[C@]12C=CC(=O)C=C1CC[C@@H]1[C@@H]2[C@@H](O)C[C@@]2(C)[C@H]1CC[C@]2(O)C(=O)CO` [PREDNISOLONE] are within 0.2 log units of each other in “log(activity)” value: 0.32 for the first, 0.43 for the second.

`CC(=O)[C@@]1(O)[C@H](O)C[C@H]2[C@@H]3CCC4=CC(=O)C=C[C@]4(C)[C@@]3(F)[C@@H](O)C[C@@]21C` and `C[C@]12C=CC(=O)C=C1CC[C@H]1[C@@H]3C[C@@H](O)[C@](O)(C(=O)CO)[C@@]3(C)C[C@H](O)[C@@]12F` [TRIAMCINOLONE] are within 0.2 log units of each other in “log(activity)” value: 0.93 for the first, 1.03 for the second.

Going from `CC(=O)[C@H]1[C@H](C)C[C@H]2[C@@H]3CCC4=CC(=O)CC[C@]4(C)[C@@]3(F)C(=O)C[C@@]21C` to `CC(=O)[C@H]1[C@H](O)C[C@H]2[C@@H]3CCC4=CC(=O)CC[C@]4(C)[C@@]3(F)[C@@H](O)C[C@@]21C`, the “log(activity)” value falls from -0.11 to -1.3.

First: CC(=O)C1(C(C)=O)CC[C@H]2[C@@H]3CCC4=CC(=O)CC[C@]4(C)[C@@]3(F)[C@@H](O)C[C@@]21C
Second: CC(=O)[C@H]1CC[C@H]2[C@@H]3CCC4=CC(=O)CC[C@]4(C)[C@@]3(F)[C@@H](O)C[C@]12C
The “log(activity)” value of the first is higher: -0.7 for the first, -1.3 for the second.

Compared with `C[C@]12CC(=O)[C@H]3[C@@H](CCC4=CC(=O)CC[C@@]43C)[C@@H]1CC[C@@H]2C(=O)CO`, `C[C@]12C[C@H](O)[C@H]3[C@@H](CCC4=CC(=O)CC[C@@]43C)[C@@H]1CC[C@@H]2C(=O)CO` [CORTICOSTERONE] is lower in “log(activity)” value: -0.31 for the first, -0.55 for the second.

Going from `C[C@]12C=CC(=O)C=C1C=C[C@@H]1[C@@H]2[C@@H](O)C[C@@]2(C)[C@H]1CC[C@]2(O)C(=O)CO` to `C[C@]12CCC(=O)C=C1C=C[C@@H]1[C@@H]2[C@@H](O)C[C@@]2(C)[C@H]1CC[C@]2(O)C(=O)CO`, the “log(activity)” value falls from 0.08 to -0.15.

Compared with `CC(=O)OCC(=O)[C@@]1(O)CC[C@H]2[C@@H]3C[C@H](C)C4=CC(=O)CC[C@]4(C)[C@H]3C(=O)C[C@@]21C`, `CC(=O)[C@@]1(O)CC[C@H]2[C@@H]3C[C@H](C)C4=CC(=O)CC[C@]4(C)[C@H]3[C@@H](O)C[C@@]21C` is higher in “log(activity)” value: -0.1 for the first, 0.36 for the second.

`C[C@H]1C[C@@H]2[C@H]([C@@H](O)C[C@@]3(C)[C@H]2CC[C@]3(O)C(=O)CO)[C@@]2(C)CCC(=O)C=C12` and `C[C@H]1C[C@@H]2[C@H]([C@@H](O)C[C@@]3(C)[C@H]2CC[C@]3(O)C(=O)CF)[C@@]2(C)CCC(=O)C=C12` are within 0.2 log units of each other in “log(activity)” value: 0.2 for the first, 0.29 for the second.

First: CC(=O)[C@H]1CC[C@H]2[C@@H]3CCC4=CC(=O)[C@H](C)C[C@]4(C)[C@@]3(F)C(=O)C[C@]12C
Second: CC(=O)[C@H]1CC[C@H]2[C@@H]3C[C@H](C)C4=CC(=O)CC[C@]4(C)[C@@]3(F)[C@@H](O)C[C@]12C
The “log(activity)” value of the first is lower: -0.01 for the first, 0.34 for the second.

First: C[C@@H]1C[C@H]2[C@@H]3C[C@H](F)C4=CC(=O)CC[C@]4(C)[C@H]3CC[C@]2(C)[C@@]1(O)C(=O)CO
Second: C[C@@H]1C[C@@]2(C)C(=CC1=O)CC[C@@H]1[C@@H]2[C@@H](O)C[C@@]2(C)[C@H]1CC[C@]2(O)C(=O)CO
The “log(activity)” value of the first is lower: -0.6 for the first, 0.64 for the second.

Going from `CC(=O)[C@H]1CC[C@H]2[C@@H]3C[C@H](F)C4=CC(=O)CC[C@]4(C)[C@@]3(F)[C@@H](O)C[C@]12C` to `C[C@H]1C[C@H]2[C@@H]3CC[C@](O)(C(=O)CO)[C@@]3(C)C[C@H](O)[C@]2(F)[C@@]2(C)C=CC(=O)C=C12`, the “log(activity)” value rises from 0.06 to 1.15.

`C[C@H]1C[C@@H]2[C@H]([C@@H](O)C[C@@]3(C)[C@H]2CC[C@]3(O)C(=O)CF)[C@@]2(C)C=CC(=O)C=C12` was tested, and the “log(activity)” value was 0.2.
